We go through 9 molecules from US11312719B2, “9-substituted amino triazolo quinazoline derivatives as adenosine receptor antagonists, pharmaceutical compositions and their use” (Merck Sharp & Dohme Corp., priority 2018, dated 2022).

The target in one assay is human A2B receptors (Homo sapiens (Human), UniProt P29275). Nature of the assay: A2B antagonism in cAMP cell-based assay (LANCE cAMP, HEK293). Conditions: HEK293 cells expressing human A2B receptor. As for the experimental part: (§1) Measurement of A2A and A2B Antagonism in cAMP Cell-Based Assay
(§2) The ability of compounds to antagonize human A2A and A2B adenosine receptors was determined using a kit to measure changes in intracellular cyclic AMP levels (LANCE cAMP 384 Kit, Perkin Elmer, Cat. No. AD0264). HEK293 cells recombinantly expressing either human A2A or A2B receptors, previously frozen in Recovery Medium (Life Technologies, Cat. No. 12648-010) were thawed and diluted into stimulation buffer (HBSS (Hyclone SH 30268.01), 5 mM HEPES (Gibco 15630-106), 200 nM rolipram (Tocris, Cat. No. 0905), and 1.5% (V/v) BSA stabilizer (kit component). The cell suspension was centrifuged at 200×g for 10 min and then resuspended in stimulation buffer, supplemented with a 1:10 000 dilution of Alexa Fluor 647 anti-cAMP antibody, to a density of 6.0×10^5 cells/mL. A Labcyte Echo 550 acoustic dispenser was used to transfer up to 25 nL of test compound dissolved in DMSO into the wells of a dry Optiplate-384 plate (Perkin Elmer, Cat. No. 6008289). All subsequent liquid additions were performed using a multichannel pipettor. Next, 5 μL of the cell suspension was added to the wells of the Optiplate-384 and incubated for 30 min. at 37° C. and 5% CO2 in a humidified environment. After this time 5 μL of either 300 nM or 600 nM adenosine (Sigma Cat. No. A9251) for A2A and A2B respectively was added and incubated for 30 minutes at 37° C. and 5% CO2 in a humidified environment. At this time detection mix was prepared by combining the LANCE Eu-W8044 labeled streptavidin and Biotin-cAMP in detection buffer according to the manufacturers protocol. 10 μL of the detection mix was added to each well of the Optiplate-384 which was covered with a plate seal and incubated under ambient conditions for 2 hours prior to reading the plate using an Envision (Perkin Elmer, Waltham, Mass.) multimode plate reader. Data was normalized by defining minimal effect as stimulation in the presence of 0.25% (v/v) DMSO and maximal effect as stimulation in the presence of 1 μM ZM241385 (Cayman, Cat. No. 1036). Curve fitting of the percent effect data versus the log of compound concentration used a 4-parameter concentration response curve fitting algorithm to calculate IC50 values. Compound concentrations tested were 10,000, 3,333, 1,111, 370.4, 123.4, 41.2, 13.7, 4.6, 1.5 and 0.5 nM with 0.25% residual DMSO.

A further assay has as its target human A2A receptors (Homo sapiens (Human), UniProt P29274). The assay is described as follows: A2A antagonism in cAMP cell-based assay (LANCE cAMP, HEK293). The settings on record: HEK293 cells expressing human A2A receptor. The method, then: as §1, §2
Background: In TR-FRET formats the signal depends on donor and acceptor labels being close together.

Sequence of human A2A receptors (P29274 whole entry): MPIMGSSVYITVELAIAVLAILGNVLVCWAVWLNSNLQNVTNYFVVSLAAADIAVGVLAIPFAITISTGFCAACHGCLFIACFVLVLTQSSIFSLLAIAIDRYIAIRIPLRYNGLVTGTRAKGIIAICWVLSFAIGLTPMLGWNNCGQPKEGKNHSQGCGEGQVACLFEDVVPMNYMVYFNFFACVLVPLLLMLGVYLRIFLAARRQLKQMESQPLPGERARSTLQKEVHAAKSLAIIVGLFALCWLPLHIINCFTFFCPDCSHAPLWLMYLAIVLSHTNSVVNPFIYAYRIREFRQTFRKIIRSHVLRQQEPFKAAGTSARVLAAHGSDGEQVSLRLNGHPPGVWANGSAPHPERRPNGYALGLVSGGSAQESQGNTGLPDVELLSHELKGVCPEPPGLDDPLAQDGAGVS
Sequence of human A2B receptors (P29275 whole entry): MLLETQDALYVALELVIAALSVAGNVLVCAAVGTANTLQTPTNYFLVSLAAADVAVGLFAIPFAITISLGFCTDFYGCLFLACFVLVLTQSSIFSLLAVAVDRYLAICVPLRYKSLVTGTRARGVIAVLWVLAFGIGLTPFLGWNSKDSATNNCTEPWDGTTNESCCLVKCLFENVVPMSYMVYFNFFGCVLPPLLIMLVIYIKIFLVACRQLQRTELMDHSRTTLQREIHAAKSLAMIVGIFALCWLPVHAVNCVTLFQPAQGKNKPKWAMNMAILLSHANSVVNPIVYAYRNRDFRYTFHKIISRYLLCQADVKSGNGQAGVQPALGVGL

Consider `COc1cc2nc(N)n3nc(C4CC(C)CN(c5cnn(C(C)(C)CO)c5)C4)nc3c2cc1F` (single isomer, unassigned) [Example 171, 2-(4-((3R,5S or 3S,5R)-3-(5-amino-9-fluoro-8-methoxy-[1,2,4]triazolo[1,5-c]quinazolin-2-yl)-5-methylpiperidin-1-yl)-1H-pyrazol-1-yl)-2-methylpropan-1-ol], for which the values for the IC50 against human A2B receptors and at human A2A receptors were 11.3 nM and 1.2 nM, respectively.
`COc1cc2nc(N)n3nc(C4CC(C)CN(c5cnn(C(C)(C)CO)c5)C4)nc3c2cc1F` (single isomer, unassigned) [Example 172, 2-(4-((3S,5R or 3R,5S)-3-(5-amino-9-fluoro-8-methoxy-[1,2,4]triazolo[1,5-c]quinazolin-2-yl)-5-methylpiperidin-1-yl)-1H-pyrazol-1-yl)-2-methylpropan-1-ol]: at human A2B receptors (at 10000 nM), the “A2B cAMP % Inh. @10000 nM” value turned out to be 14% Inh. In addition, half-maximal inhibition against human A2A receptors (IC50) was put at 60.5 nM.
Consider `COc1cc(F)cc2c1nc(N)n1nc(C3CC(C)CN(c4cnn(CC(C)(C)O)c4C)C3)nc21` (single isomer, unassigned) [Example 173, 1-(4-((3R,5S or 3S,5R)-3-(5-amino-9-fluoro-7-methoxy-[1,2,4]triazolo[1,5-c]quinazolin-2-yl)-5-methylpiperidin-1-yl)-5-methyl-1H-pyrazol-1-yl)-2-methylpropan-2-ol], for which the values for the IC50 on human A2B receptors and on human A2A receptors were 2020 nM and 20.7 nM, respectively.
Taken in the same sequence, the figures for `COc1cc(F)cc2c1nc(N)n1nc(C3CC(C)CN(c4cnn(CC(C)(C)O)c4C)C3)nc21` (single isomer, unassigned) [Example 174, 1-(4-((3S,5R or 3R,5S)-3-(5-amino-9-fluoro-7-methoxy-[1,2,4]triazolo[1,5-c]quinazolin-2-yl)-5-methylpiperidin-1-yl)-5-methyl-1H-pyrazol-1-yl)-2-methylpropan-2-ol] were 30.7 nM and 0.6 nM.
Turning to `COc1cc(F)cc2c1nc(N)n1nc(C3CC(C)CN(c4cn(C(C)(C)CO)nc4C)C3)nc21` (single isomer, unassigned) [Example 175, 2-(4-((3R,5S or 3S,5R)-3-(5-amino-9-fluoro-7-methoxy-[1,2,4]triazolo[1,5-c]quinazolin-2-yl)-5-methylpiperidin-1-yl)-3-methyl-1H-pyrazol-1-yl)-2-methylpropan-1-ol], the IC50 was 2000 nM against human A2B receptors and 30.2 nM against human A2A receptors.
For `COc1cc(F)cc2c1nc(N)n1nc(C3CC(C)CN(c4cn(C(C)(C)CO)nc4C)C3)nc21` (single isomer, unassigned) [Example 176, 2-(4-((3S,5R or 3R,5S)-3-(5-amino-9-fluoro-7-methoxy-[1,2,4]triazolo[1,5-c]quinazolin-2-yl)-5-methylpiperidin-1-yl)-3-methyl-1H-pyrazol-1-yl)-2-methylpropan-1-ol], in that order: 10.2 nM and 0.9 nM.
In the case of `Cc1nn(C(C)(C)CO)cc1N1CC(C)CC(c2nc3c4cc(F)cc(F)c4nc(N)n3n2)C1` (single isomer, unassigned) [Example 177, 2-(4-((3R,5S or 3S,5R)-3-(5-amino-7,9-difluoro-[1,2,4]triazolo[1,5-c]quinazolin-2-yl)-5-methylpiperidin-1-yl)-3-methyl-1H-pyrazol-1-yl)-2-methylpropan-1-ol], the IC50 against human A2B receptors was found to be 3960 nM; against human A2A receptors, 154 nM.
In the case of `Cc1nn(C(C)(C)CO)cc1N1CC(C)CC(c2nc3c4cc(F)cc(F)c4nc(N)n3n2)C1` (single isomer, unassigned) [Example 178, 2-(4-((3S,5R or 3R,5S)-3-(5-amino-7,9-difluoro-[1,2,4]triazolo[1,5-c]quinazolin-2-yl)-5-methylpiperidin-1-yl)-3-methyl-1H-pyrazol-1-yl)-2-methylpropan-1-ol], the IC50 at human A2B receptors was 11.5 nM; against human A2A receptors, 0.6 nM.
Turning to `CC1CC(c2nc3c4cc(F)cc(F)c4nc(N)n3n2)CN(c2cnn(C(C)(C)CO)c2)C1` (single isomer, unassigned) [Example 179], the values for the 50% inhibitory concentration (IC50) against human A2B receptors and against human A2A receptors were 335 nM and 4 nM, respectively.

As usually defined, the IC50 is the concentration that gives 50% inhibition.
